{
  "source": "patent US20160338992A1",
  "about": "“COMPOSITE COMPRISING 3'-HYDROXYGENISTEIN AND USE FOR INHIBITION OF MELANOGENESIS” (BIO-JOURDENESS INTERNATIONAL GROUP CO., LTD., priority 2015, published 2016)",
  "key": {"[1]": {"tested_on": "tyrosinase", "assay": "Effect on tyrosinase activity (L-DOPA to dopachrome, absorbance at 475 nm)", "type": "biochemical", "conditions": "for effect on tyrosinase activity (FIG. 2): 10-40 μM", "method": "Tyrosinase plays an important role on melanogenesis. Thus the effect of 3′-hydroxygenistein on tyrosinase is detected. First dissolve 1 μL 3′-hydroxygenistein in DMSO (dimethyl sulfoxide) and mixed with 5 μL tyrosinase in a 94 μL, 50 mM PBS (pH 6.8). Add 0.9 mL, 2.5 mM L-DOPA (dissolved in 50 mM PBS, pH 6.8) into the mixture and react at 25° C. for 10 minutes."}, "[2]": {"tested_on": "B16 melanoma 4A5 cells", "assay": "Cell viability by MTT assay", "type": "cell-based, mouse", "conditions": "48 hours", "method": "In order to confirm a non-cytotoxic concentration range of 3′-hydroxygenistein, MTT and crystal violet staining assays are used to detect cell viability of 3′-hydroxygenistein. A mouse melanoma cell line (B16 melanoma 4A5 obtained from bioresource Collection and Research Center, Food Industry Research and Development Institute) is cultured in DMEM (Dulbecco's Modified Eagle Medium) containing 10% (v/v) fetal bovine serum (FBS) in a 5% CO2 humidified incubator for 24 hours. The B16 melanoma 4A5 cells are treated with 3′-hydroxygenistein for 48 hours. Then remove the culture medium, add 1 mg/mL MTT dissolved in PBS and incubate for 2 hours. Next remove MTT solution and add DMSO. At last, use spectrophotometer ((U-5100; Hitachi, Japan) to detect absorbance of dissolved formazan crystals at 475 nm. The cell viability is expressed as percentage of control (% of control)."}, "[3]": {"tested_on": "B16 melanoma 4A5 cells", "assay": "Melanin content in IBMX-stimulated cells", "type": "cell-based, mouse", "conditions": "400 μM IBMX, 2 days; for effect on melanogenesis (FIG. 4): 10 μM and 20 μM", "method": "In this experiment, 3-isobutyl-1-methylxanthine (IBMX) is used as a melanogenic-stimulating agent while genistein and danazol with inhibitory effect on melanogenesis are used as positive controls. The B 16 melanoma 4A5 cells are cultured in DMEM containing 10% (v/v) fetal bovine serum (FBS) in a 5% CO2 humidified incubator at 37° C. Then seed cells in a 24-well plate with proper density. After one day, the cells are treated with 5 μM, 10 μM, and 20 μM 3′-hydroxygenistein respectively in the presence of 400 μM IBMX and cultured for 2 days. Then collect and wash the cells with PBS (Phosphate Buffered Saline) buffer twice. The cell pellets are dissolved in lysis buffer containing 20 mM trisodium phosphate (pH6.8) and 1% Triton X-100. After centrifugation at 15,000×g for 15 minutes, melanin pellets are dissolved in 1N NaOH containing 20% DMSO at 95° C. for 1 hour. Use spectrophotometer ((U-5100; Hitachi, Japan) to detect absorbance of melanin at 490 nm. The melanin content is expressed as percentage of the control group (IBMX group)."}, "[4]": {"tested_on": "tyrosinase", "conditions": "cited from earlier work"}, "[5]": {"tested_on": "melanin cells", "conditions": "30 μM to 60 μM; cited from earlier work"}},
  "data": [
    {"smiles": "O=c1c(-c2ccc(O)c(O)c2)coc2cc(O)cc(O)c12", "note": "[3′-hydroxygenistein]", "values": [
      {"measurement": "effect on tyrosinase activity (FIG. 2)", "setting": "[1]", "value": "inhibits tyrosinase activity in a dose-dependent manner"},
      {"measurement": "IC50", "setting": "[1]; L-DOPA substrate, 25° C., 10 minutes, pH 6.8, read-out: half-inhibitory concentration (IC50) in inhibiting tyrosinase", "value": 15.9, "unit": "µM"},
      {"measurement": "tyrosinase inhibitory activity, times stronger than kojic acid", "setting": "[1]; ratio of IC50 values, kojic acid as the standard", "value": 11, "unit": "times"},
      {"measurement": "cytotoxicity (cell survival rate, FIG. 3)", "setting": "[2]; 40 μM", "value": "shows cytotoxicity"},
      {"measurement": "cytotoxicity (cell survival rate, FIG. 3)", "setting": "[2]; concentration between 10 μM and 20 μM", "value": "no cytotoxicity"},
      {"measurement": "effect on melanogenesis (FIG. 4)", "setting": "[3]", "value": "show inhibition of melanogenesis"},
      {"measurement": "melanin content, percentage of the control group (IBMX group)", "setting": "[3]; 20 μM", "value": 50.5, "unit": "%"},
      {"measurement": "inhibitory effect on melanogenesis compared with danazol", "setting": "[3]", "value": "better than danazol"}
    ]},
    {"smiles": "O=c1c(-c2ccc(O)cc2)coc2cc(O)c(O)cc12", "note": "[6-OHDe, 6,7,4′-trihrdroxyisoflavone]", "values": [
      {"measurement": "tyrosinase inhibitory activity, times stronger than glycitein", "setting": "[4]; Taiwanese Pat. No. 1312686", "value": 25, "unit": "times"},
      {"measurement": "tyrosinase inhibition activity (literature)", "setting": "[4]", "value": "have tyrosinase inhibition activity"}
    ]},
    {"smiles": "O=c1c(-c2ccc(O)cc2)coc2c(O)c(O)ccc12", "note": "[8-OHDe, 7,8,4′-trihrdroxyisoflavone]", "values": [
      {"measurement": "tyrosinase inhibitory activity, times stronger than daidzein", "setting": "[4]; Taiwanese Pat. No. 1312686", "value": 30, "unit": "times"},
      {"measurement": "tyrosinase inhibition activity (literature)", "setting": "[4]", "value": "have tyrosinase inhibition activity"}
    ]},
    {"smiles": "O=c1c(-c2ccc(O)cc2)coc2c(O)c(O)cc(O)c12", "note": "[8-hydroxygenistein, 5,7,8,4′-tetrahydroxyisoflavone]", "values": [
      {"measurement": "tyrosinase inhibitory activity, times stronger than genistein", "setting": "[4]; Taiwanese Pat. No. 1312686", "value": 90, "unit": "times"}
    ]},
    {"smiles": "O=c1c(-c2ccc(O)cc2)coc2cc(O)ccc12", "note": "[daidzein]", "values": [
      {"measurement": "tyrosinase inhibition activity (literature)", "setting": "[4]", "value": "doesn't have such activity"}
    ]},
    {"smiles": "O=c1c(-c2ccc(O)cc2)coc2cc(O)cc(O)c12", "note": "[genistein]", "values": [
      {"measurement": "effect on tyrosinase activity (FIG. 2)", "setting": "[1]", "value": "no tyrosinase inhibitory activity"},
      {"measurement": "effect on melanogenesis (FIG. 4)", "setting": "[3]", "value": "no inhibitory effect on melanogenesis"},
      {"measurement": "effect on melanin production (literature)", "setting": "[5]", "value": "induce melanin cells to produce more melanin"}
    ]}
  ]
}
